Results from patent US7087648B1, “Methods for modulating macrophage proliferation using polyamine analogs” (The Regents of the University of California, priority 1997, dated 2006).
pEC50: −log10 of the molar value. Where two headings read alike, the source gives them in different places.

Assays:
brain cell aggregates = assay: In vitro cell killing of brain cell aggregates by macrophage supernatants treated or not with DEHOP; type: cell-based, human; settings: FIG. 2
Experimental: To collect a maximum number of monocytes (both heavy and light), we used a one-step Percoll protocol. 1.5 mL whole heparinised blood was mixed with an equal volume of isotonic phosphate-buffered solution and layered over 5 mL Percoll at 1.087. The cells were centrifuged, washed, and resuspended in RPMI 1640 supplemented with 10% fetal calf serum at […]. To separate non-adherent lymphocytes from adherent monocytes, culture dishes were washed with RPMI after overnight incubation. The adherent cells were re-fed with RPMI and cultured for 7 days to obtain supernatants. Supernatants were clarified by centrifugation at 90,000 g over 25% sucrose overnight. The supernatant was filtered through a 0.22 μm syringe filter and stored at −70° C.
Human fetal brain tissue from between 16 and 18 weeks' gestation was obtained from elective abortions for preparation of brain cell aggregates. These aggregates contain all the cells of the central nervous system including neurons, astrocytes, oligodendrocytes with accompanying myelin, and microglial cells. After 10 days in culture, and before experimentation, aggregates were tested for viability by trypan-blue exclusion. […]
Lactate dehydrogenase is released on cell lysis. […] The brain aggregate supernatant was reacted with yellow tetrazolium salt and absorbance was read at 490 nm. […]

[1] = test system: CD14^+/PCNA^+ peripheral blood macrophage; assay: In vitro CD14/PCNA staining (FACSCAN) of PBMC from AIDS dementia patients cultured five days with agent; type: cell-based, human; settings: for CD14^+/PCNA^+ / CD14^+/PCNA^− / total CD14: HIV dementia patient five; for CD14^+/PCNA^+: 0 drug: 74; for CD14^+/PCNA^−: 0 drug: 472; for total CD14: 0 drug: 546; for % Inhibition of CD14^+/PCNA antigen expression, mean: mean of HIV dementia patients
Experimental: We had previously separated peripheral blood monocytes on Ficoll. […] We then used Percoll gradient separation, which allows for denser cells to be captured. A two-step gradient was prepared in 15 mL conical tubes: bottom layer of 1.087 density Percoll, overlaid with 1.077 density. 1.5 mL whole heparinised blood was mixed with an equal volume of isotonic saline. This blood/saline was layered over the gradient and centrifuged. Cells from the 1.077 and 1.087 interfaces were collected, combined, and washed in 5 volumes of RPMI 1640. […] All further experiments were performed using 1.087 gradient.
Five×10^5 PBMC's isolated through a 1.087 g/cc Percoll/saline gradient were exposed to varied concentrations of agent after baseline CD14/PCNA staining was performed. The cells were cultured at 5×10^5 cells in RPM1-1640/10% fetal calf serum in a polypropylene tube (Falcon) at 37° C. for five days. After five days CD14/PCNA staining was performed on control and agent-treated cultures. FACSCAN analysis of PCNA-positive cells in control cultures was compared with agent-treated cultures and the percentage of control PCNA/CD14 cells was calculated. The results of such an experiment in which the effect of polyamine analog DEHOP (SunPharm; Florida) on proliferating macrophages (as detected by PCNA) from the blood of four patients with AIDS dementia are shown in FIG. 1A (with underlying data provided in Table 3). […] A comparison of the inhibitory effect of DEHOP and cyclosphosphamide, another anti-proliferative agent, was performed in vitro using the blood of one of these patients (“CB”).

CD14^+ cells = assay: In vitro dose response in NHL patient PBMC; total CD14^+ cell survival; type: cell-based, human; settings: for pEC50: Homo sapiens, PBMC, 120 h, read-out: ED50 (50% of cells killed); for pEC50 / ED80 (80% of cells killed): 5 days of culture; for drug sensitivity in vitro: post in vivo DEHOP administration blood specimens
Experimental: To test whether patient macrophages would respond to administration of DEHOP in vitro, CD14 cells in a peripheral blood mononuclear cell preparation (PBMC) were exposed to different concentrations of DEHOP and the proportion of CD14 positive cells surviving at the end of 5 days of culture was assessed in drug treated cells as compared to controls. Specimens obtained pre chemotherapy were compared to specimens obtained 2 weeks post therapy. […] For patient four, the first specimen was obtained one day after the first cycle of DEHOP; the second specimen was obtained one week later. The effective dose 50 (where 50% of cells were killed), and effective dose 80 (where 80% of cells were killed) were calculated for each set of patient specimens exposed to DEHOP in vitro.

AIDS related lymphoma = assay: Clinical response to DEHOP in chemotherapy resistant AIDS related lymphoma patients; type: in vivo, human; settings: for tumor relapse: after two cycles of DEHOP, no third cycle
Experimental: Four patients who had failed standard chemotherapy for treatment of their AIDS related lymphoma (therapy included at least CHOP chemotherapy up to six cycles). were evaluated for response to DEHOP administration in vivo. Patients had blood drawn pre administration of drug for evaluation of macrophage activation. This blood was also evaluated for response to DEHOP in vitro. […] Blood was obtained at 1 week after completion of the first and second cycles of therapy. The blood specimens were evaluated for macrophage proliferation (proliferating cell nuclear antigen, PCNA expression), and activation (percentage CD69 expression). Response to therapy was evaluated by direct observation of tumor (3 patients) and persistence or resolution of symptoms (1 patient with GI lymphoma).

SMILES: CCNCCCCNCCCCNCCCCNCC [DEHOP, 1,14-bis(ethylamino)-5,10-diazatetradecane]
- cell killing by macrophage supernatants (brain cell aggregates; non-dementia disease control (AIDS lymphoma), with or without DEHOP treatment): did not show significant cell killing
- cell killing by macrophage supernatants (brain cell aggregates; peripheral blood of an AIDS dementia patient, preparations treated with DEHOP): virtually disappeared
- PCNA^+/CD14 cell survival ([1]; FIG. 6, averages of several (N) experiments): decrease
- % Inhibition of CD14^+/PCNA antigen expression ([1]; HIV dementia patient 1, DEHOP 2 um): 79%
- % Inhibition of CD14^+/PCNA antigen expression ([1]; HIV dementia patient 1, DEHOP 10 um): 95%
- % Inhibition of CD14^+/PCNA antigen expression ([1]; HIV dementia patient 1, DEHOP 50 um): 84%
- % Inhibition of CD14^+/PCNA antigen expression ([1]; HIV dementia patient 2, DEHOP 0.4 um): 94%
- % Inhibition of CD14^+/PCNA antigen expression ([1]; HIV dementia patient 2, DEHOP 2 um): 94%
- % Inhibition of CD14^+/PCNA antigen expression ([1]; HIV dementia patient 2, DEHOP 10 um): 97%
- % Inhibition of CD14^+/PCNA antigen expression ([1]; HIV dementia patient 3, DEHOP 0.4 um): 66%
- % Inhibition of CD14^+/PCNA antigen expression ([1]; HIV dementia patient 3, DEHOP 2 um): 62%
- % Inhibition of CD14^+/PCNA antigen expression ([1]; HIV dementia patient 3, DEHOP 10 um): 58%
- % Inhibition of CD14^+/PCNA antigen expression ([1]; HIV dementia patient 4, DEHOP 0.08 um): 19%
- % Inhibition of CD14^+/PCNA antigen expression ([1]; HIV dementia patient 4, DEHOP 0.4 um): 25%
- % Inhibition of CD14^+/PCNA antigen expression ([1]; HIV dementia patient 4, DEHOP 2 um): 75%
- CD14^+/PCNA^+ ([1]; 0.4 (um)): 25 #cells/10,000 PBMC
- CD14^+/PCNA^− ([1]; 0.4 (um)): 222 #cells/10,000 PBMC
- total CD14 ([1]; 0.4 (um)): 247 #cells/10,000 PBMC
- CD14^+/PCNA^+ ([1]; 2 (um)): 28 #cells/10,000 PBMC
- CD14^+/PCNA^− ([1]; 2 (um)): 182 #cells/10,000 PBMC
- total CD14 ([1]; 2 (um)): 210 #cells/10,000 PBMC
- CD14^+/PCNA^+ ([1]; 10 um): 31 #cells/10,000 PBMC
- CD14^+/PCNA^− ([1]; 10 um): 89 #cells/10,000 PBMC
- total CD14 ([1]; 10 um): 120 #cells/10,000 PBMC
- percentage of proliferating macrophages (as detected by PCNA) ([1]; blood of four patients with AIDS dementia, FIG. 1A): significantly reduced the percentage of proliferating macrophages
- inhibitory effect compared with cyclosphosphamide ([1]; blood of patient five, Table 1): superior in inhibition
- % Inhibition of CD14^+/PCNA antigen expression, mean ([1]; DEHOP 0.08 um): 19%
- % Inhibition of CD14^+/PCNA antigen expression, mean ([1]; DEHOP 0.4 um): 62%
- % Inhibition of CD14^+/PCNA antigen expression, mean ([1]; DEHOP 2 um): 78%
- % Inhibition of CD14^+/PCNA antigen expression, mean ([1]; DEHOP 10 um): 83%
- % Inhibition of CD14^+/PCNA antigen expression, mean ([1]; DEHOP 50 um): 84%
- inhibition and/or killing of blood PCNA^+/CD14^+ cells ([1]; summary of the data shown): potent inhibition and/or killing
- pEC50 (CD14^+ cells; patient one, Pre specimen): 5.00
- pEC50 (CD14^+ cells; patient three, Post specimen): 7.00
- pEC50 (CD14^+ cells; patient three, Pre specimen): 5.00
- pEC50 (CD14^+ cells; patient two, Post specimen): < 5.00
- pEC50 (CD14^+ cells; patient two, Pre specimen): 6.00
- ED80 (80% of cells killed) (CD14^+ cells; patient four, Post specimen): 0.1 µM
- ED80 (80% of cells killed) (CD14^+ cells; patient four, Pre specimen): 1.0 µM
- ED80 (80% of cells killed) (CD14^+ cells; patient one, Pre specimen): >10 µM
- ED80 (80% of cells killed) (CD14^+ cells; patient three, Post specimen): 0.8 µM
- ED80 (80% of cells killed) (CD14^+ cells; patient three, Pre specimen): >10 µM
- ED80 (80% of cells killed) (CD14^+ cells; patient two, Post specimen): >10 µM
- ED80 (80% of cells killed) (CD14^+ cells; patient two, Pre specimen): >10 µM
- drug sensitivity in vitro (CD14^+ cells; patient two): persistently resistant to drug
- drug sensitivity in vitro (CD14^+ cells; patients): marked drug sensitivity
- Response to Therapy: objective measured tumor response after first week of Rx (AIDS related lymphoma; patient four, DEHOP sq for 5 days, 25 or 50 mg/m^2): >50% objective measured tumor
- tumor relapse (AIDS related lymphoma; patient four): 47 days
- Response to Therapy (AIDS related lymphoma; patient one, DEHOP sq for 5 days, 25 or 50 mg/m^2): None
- Response to Therapy (AIDS related lymphoma; patient three, DEHOP sq for 5 days, 25 or 50 mg/m^2): Clinical Response
- tumor relapse (AIDS related lymphoma; patient three): 54 days
- Response to Therapy (AIDS related lymphoma; patient two, DEHOP sq for 5 days, 25 or 50 mg/m^2): None
- clinical response (AIDS related lymphoma; patients, day 35 after initiation of study): objective and subjective responses
